{"source": "patent US20250311736A1", "about": "“SEED TREATMENT METHODS FOR INCREASING YIELD IN CROP PLANTS” (BAYER AKTIENGESELLSCHAFT, priority 2021, published 2025)", "origin": "cited, not measured here", "test_system": "plants", "settings": "Tavares et al., 2011; Suwitchayanon et al., 2019"}
{"compound": "O=C(/C=C/C=C/c1ccc2c(c1)OCO2)N1CCCCC1", "note": "[piperine]", "values": [{"measurement": "phytotoxic effect on plants (inhibits their growth)", "result": "phytotoxic effect"}]}
